Data as given in US7714158B2, “Ibandronate polymorph” (Hoffmann-La Roche Inc., priority 2005, dated 2010).

Key:
[1] = Relative thermodynamic stability of Ibandronate polymorphs; conditions: compared with polymorph B
[2] = Solubility measurement of crystalline Ibandronate polymorphs by suspension and complexometric titration; type: physicochemical; conditions: Polymorph A; water; 25° C., 24 h stirred + 24 h unstirred; listed as Ibandronate polymorph A, monosodium salt monohydrate
Procedure: The solubility of the individual crystalline Ibandronate polymorphs A and B was measured for various solutions. Approximately 10 g of the corresponding polymorph A or B were suspended in three different buffer solutions at pH 2, pH 4 (Titrisol-buffer, citrate/HCl), at pH 7 (methenamine buffer, HCl) or in water. The suspension was stirred for 24 hours at 25° C. and was kept additionally 24 hours without stirring at the same temperature. Solubility was calculated by titration according to the following method.
The residue was filtered, 2 ml of the filtrate taken, 5 ml of Titriplex III solution were added and diluted with water to 100 ml. 2 ml of this solution were added to approximately 0.1 ml of xylenol orange indicator and the pH was adjusted to 6.5 by adding small portions of methenamine buffer solution or 0.1 M hydrochloric acid. The solution is titrated immediately with Th-DCTA-xylenol orange complex until the color changes from yellow to reddish-violet. The endpoint is determined photometrically.

CCCCCN(C)CCC(O)(P(=O)([O-])O)P(=O)(O)O.O.[Na+] [Polymorph A, 3-(N-methyl-N-pentyl) amino-1-hydroxypropane-1,1-diphosphonic acid monosodium salt monohydrate]
thermodynamic stability [1]: thermodynamically more stable
solubility [2]: about 278 g/l
